Read-outs that look alike come from different tables or passages of the source.
Legend:
purified human TYMS [1] = target: T1, purified human TYMS (Homo sapiens, UniProt P04818); test: Competitive drug displacement assay (tritium TYMS assay); format: biochemical; details: for dUMP conversion with increasing 5,10-mTHF concentration / dUMP conversion with increasing dUMP concentration: TS preincubated with drug, Figure 7
T1 construct: 6xHis (N); made in house; host or cells: E. coli BL21 (DE3), vector pQE80L-hTYMS
Description: For these experiments the TYMS protein was first incubated with each drug, and the reaction was then initiated by addition of 5,10-mTHF and dUMP using different concentrations of either 5,10-mTHF or dUMP to change the substrate/drug ratio. If there was competition between one of the substrates and the drug for the same binding site, then increasing the substrate concentration would displace more of the prebound drug and shift the equilibrium toward the enzyme/substrate complex, thus allowing the conversion of dUMP to proceed (Figure 7A). […]
all components including 2 µg TYMS protein to show the range of the assay, the background signal, and the dependence on 5,10-mTHF (Supplemental Figure 2C). To determine the signal from the [5-3H]dUMP tracer used in each reaction the same amount of the dUMP substrate with the [5-3H]dUMP tracer accounting for 0.06% of the final dUMP concentration was added directly to 5 mL of ultima gold liquid scintillation cocktail (Supplemental Figure 2C).
All reactions were performed in biological duplicate and technical duplicate. Results were analyzed using GraphPad Prism 9.
Competitive drug displacement assay
The tritium based TYMS catalytic activity assay was modified to determine if TYMS inhibition from 19-S, 19-S5, and 19-S7 was the result of competitive binding with either the dUMP substrate or the 5,10-mTHF cofactor. The competitive drug displacement assay utilized the standard reaction conditions for the tritium-based TYMS catalytic activity assay including 40 µM dUMP (Sigma Aldrich, Cat # D3876) with the [5- 3H]dUMP tracer (ViTrax, VT122) accounting for 0.06% of the final dUMP concentration and 100 µM 5,10- methylene tetrahydrofolate (defined as 1x dUMP and 1x 5,10-mTHF). Concentrations of total dUMP and 5,10- mTHF were then changed relative to these 1x concentrations to concisely indicate the changes in either the substrate or cofactor concentration. The highest 5x concentration of 5,10 - […]
5x concentration of total dUMP was not limited by solubility, although increases were performed in the same increments as 5,10-mTHF for comparison and 0.06% of the [5-3H]dUMP tracer was maintained at all concentrations. The remaining components in each 200 µL reaction were consistent in all reactions and included 2 µg of purified human TYMS in 50 mM KH2PO4 (Sigma Aldrich, Cat # P0662) and 100 mM β- mercaptoethanol (Sigma Aldrich, Cat # M7522). Control antifolate inhibitor PEM (Sigma Aldrich, Cat # PHR1596) was performed for reference of a TYMS specific classical antifolate and to […]
Human TYMS and DHFR preparation
Human Thymidylate Synthase (hTYMS) and human Dihydrofolate Reductase (hDHFR) were both expressed in BL21 (DE3) E. coli cells, using a standard BL21 transformation protocol, with the expression vector pQE80L-hTYMS (gift from Maria Paola Costi, University of Modena and Reggio Emilio, Italy) and pET100/D- TOPO (Invitrogen, Cat # K10001), respectively. Both vectors contained an N-terminal 6x Histidine tag attached to either hTYMS or hDHFR. After bacterial transformation, cells

DHFR = target: T2, DHFR (Homo sapiens, UniProt P00374); test: Absorbance-based DHFR activity assay; format: biochemical
T2 construct: purchased Sigma D6566 (kit CS0340)
T2 sequence (P00374 1-187): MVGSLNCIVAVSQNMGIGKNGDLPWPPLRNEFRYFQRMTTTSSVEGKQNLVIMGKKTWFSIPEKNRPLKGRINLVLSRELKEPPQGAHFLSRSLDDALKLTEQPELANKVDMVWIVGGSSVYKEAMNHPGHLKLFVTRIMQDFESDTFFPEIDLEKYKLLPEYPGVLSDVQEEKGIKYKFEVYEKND
Description: DHFR assay kit (Sigma Aldrich, Cat # CS0340) as described by the manufacturer. 0.1-unit DHFR
analogues or control drugs, 6 μL NADPH Cat # N6505 solution and 5 μl of dihydrofolic acid (DHFR
substrate) (Sigma, Cat # D7006). The reaction was then read on the spectrophotometer at 340 nm at
22 °C every 15 seconds for 2.5 minutes.

purified human TYMS [2] = target: T1, purified human TYMS; test: Tritium-based TYMS catalytic activity assay; format: biochemical; details: for TS activity, comparison at decreasing drug concentrations: Figure 6C; for TS activity (conversion of dUMP) in the presence of drug: drug 250 μM, 10 μg/mL TS protein, Figure 1B
Description: To determine the inhibition of TYMS activity, we utilized a tritium-based TYMS catalytic assay (Figure 1A) to quantify the conversion of dUMP, which is proportional to TYMS activity ([33]). The assay was based on a previously published protocol ([33]) and modified to determine the amount of purified human TYMS (hTYMS) to be used in the conversion of dUMP to dTMP. […]
Tritium based TYMS catalytic activity assay
The catalytic activity of TYMS was determined by measuring the release of [3H] from [5-3H]dUMP (ViTrax, Cat # VT122) resulting from the conversion of dUMP to dTMP as previously described (2, 3).
The reaction conditions were optimized to determine the amount of TYMS protein needed to establish […]
reactions performed without TYMS or without the 5,10-methylene tetrahydrofolate (5,10-mTHF) cofactor (Supplemental Figure 2 and Supplemental methods). Reactions were performed in 50 mM KH2PO4 (Sigma Aldrich, Cat # P0662) at pH 7.2 using 2 µg of purified human TYMS. Reactions were performed in a final volume of 200 µL with 100 mM β-mercaptoethanol (Sigma Aldrich, Cat # M7522), 40 µM dUMP (Sigma Aldrich, Cat # D3876), 100 µM 5,10-mTHF, and the [5-3H]dUMP tracer (ViTrax, Cat # VT122) accounting for 0.06% of the final dUMP concentration in the reaction. The 5,10-mTHF used in the reaction was separately generated from tetrahydrofolic acid (Sigma Aldrich, Cat # T3125) by dissolving the solid in 10 mM KH2PO4 with 143 mM β-mercaptoethanol (1:100 from 14.3 M pure liquid), and 6.35 mM formaldehyde (Sigma Aldrich, Cat # 47608) to yield a 100 mM stock solution of 5,10- mTHF. Reactions were initiated by the addition of the dUMP substrate and 5,10-mTHF cofactor, then incubated at 37 °C for 30 minutes. […]
before the reaction was initiated by the addition of the dUMP substrate and 5,10-mTHF cofactor.
Reactions were terminated by the addition of 100 µL of ice-cold 20% trichloroacetic acid (Sigma Aldrich, Cat # T6399), then excess [5-3H]dUMP was removed by the addition of 200 µL of an albumin-coated activated charcoal solution. The albumin-coated activated charcoal solution was prepared by mixing 10 g of acid- washed activated dextran coated charcoal (Sigma Aldrich, Cat # C6241) with 2.5 g of bovine albumin (Sigma Aldrich, Cat # A1933) in 100 mL of H2O. The suspension was incubated at room temperature for 30 minutes and then centrifuged for 30 minutes at 10,000 x g. Then 150 µL of the supernatant was collected and added to 5 mL of ultima gold liquid scintillation cocktail (Perkin Elmer, Cat # 6013326, lot: 77-19085), and scintillation measurements were perform using a liquid scintillation counter (Beckman Coulter LS6500) to determine [3H]H2O levels in each sample. For all experiments, positive control reactions were performed with no drug representing 100% TYMS activity, and negative

MIA PaCa-2 cells = test: MTS viability assay, MIA PaCa-2; format: cell-based; details: Homo sapiens, 72-hour drug treatment, Figure 6E, highest concentration 350 μM
Description: Cells were harvested after 72 hours, and cell pellets were stored at –80°C. […] After 72 hours, cell viability was assessed by reduction of MTS using Cell Titer 96 R Aqueous One Solution Cell Proliferation Assay Kit (Promega, catalog G8081), following manufacturer’s recommendations. […] was measured on a SpectraMax M3 (Molecular Devices). Data were plotted in GraphPad Prism 9 to determine GI50 concentration. Chemical synthesis details, including characterization of each compound, can be found in the Supplemental section associated with this publication.

T1 sequence (P04818 whole entry): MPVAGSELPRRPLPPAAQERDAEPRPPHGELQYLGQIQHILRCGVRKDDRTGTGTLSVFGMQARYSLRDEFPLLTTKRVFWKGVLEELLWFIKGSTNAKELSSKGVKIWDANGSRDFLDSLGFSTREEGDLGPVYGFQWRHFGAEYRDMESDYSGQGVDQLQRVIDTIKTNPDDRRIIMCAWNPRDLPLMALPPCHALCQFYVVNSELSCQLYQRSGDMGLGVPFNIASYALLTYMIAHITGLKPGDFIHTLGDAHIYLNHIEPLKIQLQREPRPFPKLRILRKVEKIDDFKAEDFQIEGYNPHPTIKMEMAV

| SMILES | dUMP conversion with increasing 5,10-mTHF concentration (purified human TYMS [1]) | dUMP conversion with increasing dUMP concentration (purified human TYMS [1]) | TS activity, comparison at decreasing drug concentrations (purified human TYMS [2]) | TS activity (conversion of dUMP) in the presence of drug (purified human TYMS [2]) | other results |
| --- | --- | --- | --- | --- | --- |
| CCc1nc(N)nc(N)c1-c1ccc(N(C)Cc2ccc(OC)cc2)c([N+](=O)[O-])c1 [Compound 19-S5] | increased the amount of dUMP conversion | the amount of dUMP conversion did not increase | greater TYMS inhibition than both MTX and PEM | – | Mechanism of TYMS inhibition (purified human TYMS [1]): blocking the folate-binding site; DHFR activity, comparison at reduced drug concentrations (DHFR; Figure 6D): potent TYMS and DHFR inhibition; TS activity, screen of 19-S series analogs (purified human TYMS [2]; 250 μM, Figure 6A): inhibited TYMS activity; GI50 (MIA PaCa-2 cells): 280 nM |
| CCc1nc(N)nc(N)c1-c1ccc(NCCOCCOCCN)c([N+](=O)[O-])c1 [Compound 19-S10] | – | – | – | – | DHFR activity, screen of 19-S series analogs (DHFR; 1 μM, Figure 6B): exception |
| O=c1[nH]c(=O)n([C@@H]2O[C@H](CO)[C@@H](O)[C@H]2O)cc1F [FUrd, 5-fluorouridine] | – | – | – | inactive | – |
| O=c1[nH]c(=O)n([C@H]2C[C@H](O)[C@@H](CO)O2)cc1F [FdUrd, 5-fluoro-2′-deoxyuridine] | – | – | – | reduced conversion of dUMP | – |
| Nc1nc2[nH]cc(CCc3ccc(C(=O)N[C@@H](CCC(=O)O)C(=O)O)cc3)c2c(=O)[nH]1 [PEM, pemetrexed] | increased the dUMP conversion | did not increase dUMP conversion | greater TYMS inhibition than the MTX antifolate | – | DHFR activity, comparison at reduced drug concentrations (DHFR): less effective against DHFR |

From PMC10386886, “First-in-class multifunctional TYMS nonclassical antifolate inhibitor with potent in vivo activity that prolongs survival” (JCI Insight, 2023)
